In patent publication US20160053316A1, “Systems and Methods for Determining a C-Peptide Receptor, C-Peptide Receptor, and Methods of Using Same” (Saint Louis University, priority 2012, published 2016):

Experiments:
HEK293 cells = assay: C-peptide-induced cFos mRNA expression (RT-PCR) in HEK293 cells; type: cell-based, human; conditions: treatment with C-peptide (FIG. 3)
Description: (§1) In utilizing the methodology to determine a C-peptide receptor, three human cell lines were determined (101) to respond to treatment with C-peptide with an up regulation of cFos message as determined by RT-PCR. These three were KATOIII (Human Stomach Carcinoma), HEK 293 (human embryonic kidney cells) and TF-1 (an erythroleukemia cell line). The results of tests to show responsiveness are provided graphically in FIGS. 2, 3, and 4. When these three cell lines were screened for the expression of known orphan GPCRs (103), 24 of the approximately 125 orphan GPCRs were expressed by all three cell types as indicated by the table of FIG. 5. Using bioinformatics, the pool of FIG. 5 can be narrowed (105) by eliminating any candidates already matched to other ligands or that had significant homology to GPCRs that bind to non-peptide targets (15 in this case). This is also shown in FIG. 5 with the items that are eliminated darkened. One GPCR (GPR107) could be eliminated as it was recently determined that this was the cognate receptor for neurostatin. This also allowed it to be used as a convenient control as evidenced later herein.

TF-1 cells = assay: C-peptide-induced cFos mRNA expression (RT-PCR) in TF-1 cells; type: cell-based, human; conditions: treatment with C-peptide (FIG. 4)
Description: as §1

KATOIII cells = assay: C-peptide-induced cFos mRNA expression (RT-PCR) in KATOIII cells; type: cell-based, human
Description: as §1, with “This is also shown in FIG. 5 with the items that are eliminated darkened.” left out, “This also allowed it to be used as a convenient control as evidenced later herein.” left out
To evaluate whether anti-GPR146ex-induced enhancement of receptor capping and co-localization corresponded with an increase in C-peptide-induced cFos expression, KATOIII cells were treated with either vehicle (control media), 1 nM C-peptide, anti-GPR146ex (1:500), or anti-GPR146ex and 1 nM C-peptide for one hour at 37 degrees Celsius. […] Changes in cFos mRNA expression were evaluated using real time PCR (RT-PCR).

GPR146 = target: T1, GPR146 (Homo sapiens, UniProt Q96CH1); assay: cFos response to C-peptide in siRNA-transfected KATOIII cells; type: cell-based; conditions: 1 nmole C-peptide
T1 construct: endogenous in cells; host or cells: KATOIII (human stomach carcinoma)
T1 sequence (Q96CH1 whole entry): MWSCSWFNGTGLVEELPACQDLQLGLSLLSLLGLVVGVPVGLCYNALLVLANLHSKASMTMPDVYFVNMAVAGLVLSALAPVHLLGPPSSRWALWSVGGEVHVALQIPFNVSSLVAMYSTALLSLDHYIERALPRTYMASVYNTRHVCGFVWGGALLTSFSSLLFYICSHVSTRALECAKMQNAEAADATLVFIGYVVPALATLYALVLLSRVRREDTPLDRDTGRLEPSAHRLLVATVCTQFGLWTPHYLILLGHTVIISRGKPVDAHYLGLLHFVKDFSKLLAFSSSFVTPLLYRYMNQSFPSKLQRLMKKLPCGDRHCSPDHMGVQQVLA
Description: Once the hierarchical candidates were identified and ranked, KATOIII cells were then transfected with siRNA (Integrated DNA technologies) (111) directed against either GPR107 (control), GPR146 (most likely candidate not yet tested) or eGFP (green fluorescent protein-control) using […] (Invitrogen). Five hours later, the media was changed to serum free control media (ATCC) and the serum was starved overnight. Twenty-four (24) hours after transfection with siRNA, cells were treated with 1 nmole C-peptide (Phoenix Pharmaceuticals) for 1 hour, then lysed and RNA were isolated using an RNeasy Kit (Qiagen). RNA was used as a template from the production of cDNA, and changes in cFos expression were determined using RT-PCR (BioRad 2x iQ SyberGreen Master Mix, using a BioRad CFX real time system). […] As this produced the desired negative response (113), GPR146 was the target GPCR (115). The receptiveness of GPR146 to C-peptide has since been verified by additional conventional tests.

cFos expression (GPR146; KATOIII cells transfected with Vehicle, GPR107 siRNA or eGFP siRNA (controls), 1 hour): increase in cFos | cFos expression (GPR146; KATOIII cells with GPR146 compromised by siRNA, 1 hour (FIG. 6)): failed to respond
Substance: C-peptide
cFos mRNA expression (HEK293 cells): increase in cFos mRNA expression | cFos mRNA expression (TF-1 cells): increase in cFos mRNA expression | cFos mRNA expression, material alone (KATOIII cells; one hour at 37 degrees Celsius, 1 nM C-peptide or anti-GPR146ex 1:500 alone (FIG. 7)): increased cFos | cFos mRNA expression (KATOIII cells; treatment with C-peptide (FIG. 2)): increase in cFos mRNA expression
